The subject of one data set is HeLa cells. Briefly: MTT antiproliferative assay, HeLa. It counts as cell-based. Conditions: read-out: Cytotoxicity IC50, 72 h. Background: Tetrazolium dyes change colour on reduction, which living cells bring about.
Another data set deals with p-STING. In words: Immunohistochemistry of primary tumor tissue. Conditions: 5 mg kg^−1 intratumoral, IHC. It counts as in vivo, mouse.
Another data set relates to MDA-MB-231 cells. Briefly: MTT antiproliferative assay, MDA-MB-231. Conditions: read-out: Cytotoxicity IC50, MDA-MB-231, 72 h. The format is cell-based, human.
For another data set, the system named is MCF-10A cells. Briefly: MTT antiproliferative assay, MCF-10A. The format is cell-based, human. Conditions: read-out: Cytotoxicity IC50, 72 h.
The next data set deals with MCF-7 cells. In words: MTT antiproliferative assay, MCF-7. It counts as cell-based, human. To be noted: read-out: Cytotoxicity IC50, MCF-7, 72 h.
A further data set relates to 4T1 cells. Briefly: MTT antiproliferative assay, 4T1. To be noted: read-out: Cytotoxicity IC50, 4T1, 72 h. The format is cell-based, mouse.

In the case of `N.N.[Cl][Pt][Cl]` [Cisplatin], the IC50 (commonly the midpoint of a concentration-inhibition curve) worked out at 8.35 ± 0.86 µM in the data set with HeLa cells; 20.2 ± 5.6 µM in the data set with MDA-MB-231 cells; 15.5 ± 4.33 µM in the data set with MCF-10A cells; 18.3 ± 5.74 µM with MCF-7 cells; 25.5 ± 2.52 µM with 4T1 cells. In addition, the “Expression of p-STING on primary tumors” value with p-STING is reported as “can't activate the STING pathway in vivo”.

These data come from article PMC12670118 (Chemical Science, 2025).
